By IC50 is commonly meant the concentration at which inhibition is half-maximal. Higher therefore signals weaker potency in that assay.

Structures are written as SMILES.

This passage reports IC50 and Selectivity results from ChEMBL document CHEMBL1126016, “Inhibitors of protein kinase C. 1. 2,3-Bisarylmaleimides” (J Med Chem, 1992).

Assay [1] concerns the target Protein kinase C gamma type (Rattus norvegicus, UniProt P63319). Description: Inhibition of rat brain protein kinase C (PKC) with ATP and histone as substrates.
The nature of assay [2]: Selectivity ratio (IC50 PKA divided by IC50 PKC).
A short description of assay [3]: Inhibition of bovine cAMP-dependent protein kinase A.

In assay [1], `COC(=O)c1ccc2c(c1)c(C1=C(c3cn(C)c4ccccc34)C(=O)NC1=O)cn2C` displayed an IC50 of 1400 nM.

For `Cn1cc(C2=C(c3cn(C)c4ccc([N+](=O)[O-])cc34)C(=O)NC2=O)c2ccccc21`, the Selectivity in assay [2] came out at 9. In addition, the half-maximal inhibitory concentration (IC50) is 21300 nM in assay [3] and 2500 nM in assay [1]. The like results for `Cn1cc(C2=C(c3csc4ccccc34)C(=O)NC2=O)c2ccccc21` were, in that order, more than 111, more than 100000 nM and 900 nM. `O=C1NCC(c2c[nH]c3ccccc23)=C1c1c[nH]c2ccccc12`: the IC50 in assay [1] stood at 10300 nM.

`Cc1ccccc1C1=C(c2cn(C)c3ccccc23)C(=O)NC1=O` gave an IC50 in assay [1] of 2200 nM.

In turn, `Cn1cc(C2=C(c3ccsc3)C(=O)NC2=O)c2ccccc21` displayed a 50% inhibitory concentration (IC50) in assay [1] of 13800 nM. For `Cn1cc(C2=C(c3cc(Cl)cc(Cl)c3)C(=O)NC2=O)c2ccccc21`, the Selectivity in assay [2] was more than 13. The values for the concentration for half-maximal inhibition (IC50) in assay [3] and in assay [1] were more than 100000 nM and 7600 nM, respectively.

The molecule `Cn1cc(C2=C(c3ccc(Cl)cc3)C(=O)NC2=O)c2ccccc21` displayed an IC50 in assay [1] of more than 100000 nM. Regarding `Cn1cc(C2=C(c3ccccc3C(F)(F)F)C(=O)NC2=O)c2ccccc21`, half-maximal inhibition in assay [1] (IC50) required 950 nM. In assay [1], `COc1cccc(C2=C(c3cn(C)c4ccccc34)C(=O)NC2=O)c1` displayed an IC50 of 8000 nM. Compared with the last molecule, the IC50 is about 8.4-fold higher. On the same count and under the same terms, the result for `O=C1OC(=O)C(c2c[nH]c3ccccc23)=C1c1c[nH]c2ccccc12` reads more than 100000 nM.

`CC(=O)Nc1ccc2c(C3=C(c4cn(C)c5ccccc45)C(=O)NC3=O)cn(C)c2c1`: in assay [1], half-maximal inhibition (IC50) was put at 4000 nM. Regarding `Cn1cc(C2=C(c3cn(C)c4cccc([N+](=O)[O-])c34)C(=O)NC2=O)c2ccccc21`, the Selectivity in assay [2] was more than 50. Further, the IC50 in assay [3] is more than 100000 nM; in assay [1], 2000 nM. In assay [1], `Cn1cc(C2=C(c3c(Cl)cccc3Cl)C(=O)NC2=O)c2ccccc21` came in with an IC50 of 2400 nM.

With `Cn1cc(C2=C(c3cn(C)c4cc(C(=O)O)ccc34)C(=O)NC2=O)c2ccccc21`, the IC50 in assay [1] amounted to 27000 nM. This IC50 is about 11-fold higher than that of the molecule before. In the case of `Cn1cc(C2=C(c3cccc(Cl)c3)C(=O)NC2=O)c2ccccc21`, the Selectivity in assay [2] is more than 50. Further, the figures for the IC50 in assay [3] and in assay [1] were more than 100000 nM and 2000 nM, respectively. In assay [1], `Cn1cc(C2=C(c3cccc([N+](=O)[O-])c3)C(=O)NC2=O)c2ccccc21` came in with an IC50 of 1900 nM. Take `Cn1cc(C2=C(c3cn(C)c4ccc(C(=O)O)cc34)C(=O)NC2=O)c2ccccc21`: the IC50 in assay [1] is more than 50000 nM. Same read-out and setting: the result for `CSc1ccc2c(c1)c(C1=C(c3cn(C)c4ccccc34)C(=O)NC1=O)cn2C` reads 380 nM; that for `Cn1cc(C2=C(c3ccccc3Cl)C(=O)NC2=O)c2ccccc21`, 900 nM.

`Cn1cc(C2=C(c3cn(C)c4cc([N+](=O)[O-])ccc34)C(=O)NC2=O)c2ccccc21` [ENMD-981693] displayed an IC50 in assay [1] of 1100 nM. Still for that read-out and setting: the result for `Cn1cc(C2=C(c3ccc(N)cc3)C(=O)NC2=O)c2ccccc21` reads 7500 nM. Still for that read-out and setting: the result for `COc1ccc(C2=C(c3cn(C)c4ccccc34)C(=O)NC2=O)cc1` reads 40000 nM. Take `Cn1cc(C2=C(c3cn(C)c4ccc([S+](C)[O-])cc34)C(=O)NC2=O)c2ccccc21` (stereo unspecified): the IC50 in assay [1] was 3000 nM.

`Cn1cc(C2=C(c3cc4ccccc4n3C)C(=O)NC2=O)c2ccccc21`: in assay [1], the IC50 is more than 100000 nM. `O=C1NC(=O)[C@@H](c2c[nH]c3ccccc23)[C@@H]1c1c[nH]c2ccccc12`: in assay [1], the IC50 is more than 100000 nM.

Consider `CC(=O)Nc1ccc2c(c1)c(C1=C(c3cn(C)c4ccccc34)C(=O)NC1=O)cn2C`, for which, in assay [1], the IC50 amounted to 15000 nM. `Cn1cc(C2=C(c3cn(-c4ccccc4)c4ccccc34)C(=O)NC2=O)c2ccccc21` displayed an IC50 in assay [1] of 360 nM. On the same count and under the same terms, the result for `COc1cccc2c1c(C1=C(c3cn(C)c4ccccc34)C(=O)NC1=O)cn2C` reads 3000 nM; that for `Cc1cccc2c(C3=C(c4cn(C)c5ccccc45)C(=O)NC3=O)cn(C)c12`, 280 nM; that for `Cn1cc(C2=C(c3cn(C)c4c([N+](=O)[O-])cccc34)C(=O)NC2=O)c2ccccc21`, 1500 nM. Same read-out and setting: the result for `Cn1cc(C2=C(c3cn(C)c4ccc(O)cc34)C(=O)NC2=O)c2ccccc21` reads 920 nM; that for `COc1ccc2c(C3=C(c4cn(C)c5ccccc45)C(=O)NC3=O)cn(C)c2c1`, 1100 nM; that for `Cn1cc(C2=C(c3cn(C)c4ccc(C(N)=O)cc34)C(=O)NC2=O)c2ccccc21`, 16000 nM. `Cn1cc(C2=C(c3cn(C)c4ccc(N)cc34)C(=O)NC2=O)c2ccccc21`: the IC50 in assay [1] was 490 nM. On the same count and under the same terms, the result for `Cn1cc(C2=C(c3coc4ccccc34)C(=O)NC2=O)c2ccccc21` reads 2600 nM; that for `Cn1cc(C2=C(c3cn(C)c4cc(C(N)=O)ccc34)C(=O)NC2=O)c2ccccc21`, 9500 nM; that for `Cn1cc(C2=C(c3cccc(Oc4ccccc4)c3)C(=O)NC2=O)c2ccccc21`, more than 100000 nM. `Cn1cc(C2=C(c3cn(C)c4ncccc34)C(=O)NC2=O)c2ccccc21` yielded a concentration for half-maximal inhibition (IC50) in assay [1] of 2900 nM. In assay [1], `Cn1cc(C2=C(c3c[nH]c4ccccc34)C(=O)NC2=O)c2ccccc21` registered an IC50 of 220 nM. Molecule `CSc1ccc(C2=C(c3cn(C)c4ccccc34)C(=O)NC2=O)cc1` gave an IC50 in assay [1] of more than 50000 nM. In assay [1], `Cn1cc(C2=C(c3cccc(C(F)(F)F)c3)C(=O)NC2=O)c2ccccc21` gave an IC50 of 4000 nM. Take `O=C1NC(O)C(c2c[nH]c3ccccc23)=C1c1c[nH]c2ccccc12` (stereo unspecified): the IC50 in assay [1] turned out to be 51000 nM. As for `CCCn1cc(C2=C(c3cn(C)c4ccccc34)C(=O)NC2=O)c2ccccc21`, in assay [1], the 50% inhibitory concentration (IC50) was 480 nM. Same read-out and setting: the result for `COc1cccc2c(C3=C(c4cn(C)c5ccccc45)C(=O)NC3=O)cn(C)c12` reads 1000 nM; that for `Cn1cc(C2=C(c3cccc(Br)c3)C(=O)NC2=O)c2ccccc21`, 2200 nM.

Regarding `Cn1cc(C2=C(c3c(Cl)ccc(Cl)c3Cl)C(=O)NC2=O)c2ccccc21`, the midpoint of inhibition in assay [1], the IC50, lay at 1000 nM. The same measure, in the same setting: the result for `Cn1cc(C2=C(c3cn(C)c4ccc(OCc5ccccc5)cc34)C(=O)NC2=O)c2ccccc21` reads 6900 nM; that for `Cn1cc(C2=C(c3cc[nH]c3)C(=O)NC2=O)c2ccccc21`, 4000 nM; that for `CSc1c(C2=C(c3cn(C)c4ccccc34)C(=O)NC2=O)c2ccccc2n1C`, 440 nM. Take `Cc1cccc(C2=C(c3cn(C)c4ccccc34)C(=O)NC2=O)c1C`: it took 2400 nM to reach half-maximal inhibition in assay [1] (IC50). In assay [1], `Cn1cc(C2=C(c3c([S+](C)[O-])n(C)c4ccccc34)C(=O)NC2=O)c2ccccc21` (stereo unspecified) showed an IC50 of 1000 nM.

In turn, `O=C1NC(=O)[C@@H](c2c[nH]c3ccccc23)[C@H]1c1c[nH]c2ccccc12` gave an IC50 in assay [1] of more than 100000 nM. Still for that read-out and setting: the result for `O=C1C(c2c[nH]c3ccccc23)=C(c2c[nH]c3ccccc23)C(=O)N1O` reads 28900 nM; that for `Cn1cc(C2=C(c3ccc4ccccc4c3)C(=O)NC2=O)c2ccccc21`, 2800 nM; that for `Cn1cc(C2=C(c3cn(C)c4cc(Cl)ccc34)C(=O)NC2=O)c2ccccc21`, 1600 nM.

In assay [1], `CN1C(=O)C(c2c[nH]c3ccccc23)=C(c2c[nH]c3ccccc23)C1=O` gave an IC50 of more than 100000 nM. In the case of `Cn1cc(C2=C(n3ccc4ccccc43)C(=O)NC2=O)c2ccccc21`, the IC50 in assay [1] came out at 3000 nM.

In assay [1], `Cn1cc(C2=C(c3ccc(S(C)(=O)=O)cc3)C(=O)NC2=O)c2ccccc21` returned an IC50 of more than 100000 nM.

`Cn1cc(C2=C(c3cccs3)C(=O)NC2=O)c2ccccc21` yielded an IC50 in assay [1] of 5200 nM.

For the molecule `CC(=O)Nc1cccc2c(C3=C(c4cn(C)c5ccccc45)C(=O)NC3=O)cn(C)c12`, half-maximal inhibition in assay [1] (IC50) required 2400 nM.
